Laboratory results published in ChEMBL document CHEMBL1144455, “A small molecule-kinase interaction map for clinical kinase inhibitors” (Nat Biotechnol, 2005).

What was measured:
[1] = target: Serine/threonine-protein kinase PAK 4 (Homo sapiens, UniProt O96013)
[2] = target: Mitogen-activated protein kinase kinase kinase 4 (Homo sapiens, UniProt Q9Y6R4)
[3] = target: Mitogen-activated protein kinase kinase kinase kinase 5 (Homo sapiens, UniProt Q9Y4K4)
[4] = target: Serine/threonine-protein kinase Nek6 (Homo sapiens, UniProt Q9HC98)
[5] = target: T1, Serine/threonine-protein kinase Nek2 (Homo sapiens, UniProt P51955)
T1 sequence (P51955 whole entry): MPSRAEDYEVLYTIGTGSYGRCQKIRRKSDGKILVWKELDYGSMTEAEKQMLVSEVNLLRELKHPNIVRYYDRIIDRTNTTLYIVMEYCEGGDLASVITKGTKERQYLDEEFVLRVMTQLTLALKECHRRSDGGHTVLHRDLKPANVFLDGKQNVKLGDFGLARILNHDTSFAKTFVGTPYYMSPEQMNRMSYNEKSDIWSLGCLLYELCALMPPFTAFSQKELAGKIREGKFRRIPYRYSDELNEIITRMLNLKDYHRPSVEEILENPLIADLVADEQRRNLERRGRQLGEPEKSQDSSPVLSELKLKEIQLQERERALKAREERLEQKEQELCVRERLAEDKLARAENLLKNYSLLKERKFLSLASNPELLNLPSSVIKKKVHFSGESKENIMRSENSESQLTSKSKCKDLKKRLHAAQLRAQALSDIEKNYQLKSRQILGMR

[6] = target: T2, Serine/threonine-protein kinase 17B (Homo sapiens, UniProt O94768)
T2 sequence (O94768 whole entry): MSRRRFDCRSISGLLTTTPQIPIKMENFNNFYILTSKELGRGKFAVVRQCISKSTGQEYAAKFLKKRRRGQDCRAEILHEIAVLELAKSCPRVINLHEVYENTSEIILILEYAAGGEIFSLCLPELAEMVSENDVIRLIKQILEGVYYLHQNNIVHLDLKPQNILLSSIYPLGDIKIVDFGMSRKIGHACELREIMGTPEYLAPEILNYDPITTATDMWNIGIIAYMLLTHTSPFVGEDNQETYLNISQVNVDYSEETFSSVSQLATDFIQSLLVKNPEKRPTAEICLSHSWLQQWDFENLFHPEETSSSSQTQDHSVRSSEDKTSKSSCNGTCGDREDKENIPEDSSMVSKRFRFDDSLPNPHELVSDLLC

[7] = target: T3, Serine/threonine-protein kinase PLK4 (Homo sapiens, UniProt O00444)
T3 sequence (O00444 whole entry): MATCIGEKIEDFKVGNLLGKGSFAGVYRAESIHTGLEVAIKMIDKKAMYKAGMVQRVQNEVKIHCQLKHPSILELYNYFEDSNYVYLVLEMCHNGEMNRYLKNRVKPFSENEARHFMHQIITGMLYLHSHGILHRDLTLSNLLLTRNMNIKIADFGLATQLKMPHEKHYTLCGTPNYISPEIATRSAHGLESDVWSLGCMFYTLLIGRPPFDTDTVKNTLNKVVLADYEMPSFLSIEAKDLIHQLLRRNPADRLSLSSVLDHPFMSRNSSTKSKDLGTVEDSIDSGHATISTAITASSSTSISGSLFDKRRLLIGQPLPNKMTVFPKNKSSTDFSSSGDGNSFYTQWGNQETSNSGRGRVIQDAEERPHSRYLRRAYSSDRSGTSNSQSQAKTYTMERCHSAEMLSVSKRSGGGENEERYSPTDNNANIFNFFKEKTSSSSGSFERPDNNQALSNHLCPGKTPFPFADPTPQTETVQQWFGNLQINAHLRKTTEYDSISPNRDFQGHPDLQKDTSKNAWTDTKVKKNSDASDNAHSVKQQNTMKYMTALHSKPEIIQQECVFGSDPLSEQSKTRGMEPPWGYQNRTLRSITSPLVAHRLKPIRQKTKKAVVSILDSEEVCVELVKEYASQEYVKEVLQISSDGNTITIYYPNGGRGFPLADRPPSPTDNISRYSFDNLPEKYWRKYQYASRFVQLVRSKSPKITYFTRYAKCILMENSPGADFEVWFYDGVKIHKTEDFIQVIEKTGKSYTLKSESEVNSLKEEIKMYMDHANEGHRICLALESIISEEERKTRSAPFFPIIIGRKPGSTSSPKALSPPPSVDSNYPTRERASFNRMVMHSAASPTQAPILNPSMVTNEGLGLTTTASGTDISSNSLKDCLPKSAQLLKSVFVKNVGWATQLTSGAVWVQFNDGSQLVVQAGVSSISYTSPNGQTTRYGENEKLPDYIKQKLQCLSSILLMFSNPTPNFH

Angiopoietin-1 receptor = Angiopoietin-1 receptor (Homo sapiens, UniProt Q02763)
[8] = target: High affinity nerve growth factor receptor (Homo sapiens, UniProt P04629)
[9] = target: Protein kinase C alpha type (Homo sapiens, UniProt P17252)
[10] = target: Death-associated protein kinase 2 (Homo sapiens, UniProt Q9UIK4)
[11] = target: Platelet-derived growth factor receptor beta (Homo sapiens, UniProt P09619)
[12] = target: T4, Membrane-associated tyrosine- and threonine-specific cdc2-inhibitory kinase (Homo sapiens, UniProt Q99640)
T4 sequence (Q99640 whole entry): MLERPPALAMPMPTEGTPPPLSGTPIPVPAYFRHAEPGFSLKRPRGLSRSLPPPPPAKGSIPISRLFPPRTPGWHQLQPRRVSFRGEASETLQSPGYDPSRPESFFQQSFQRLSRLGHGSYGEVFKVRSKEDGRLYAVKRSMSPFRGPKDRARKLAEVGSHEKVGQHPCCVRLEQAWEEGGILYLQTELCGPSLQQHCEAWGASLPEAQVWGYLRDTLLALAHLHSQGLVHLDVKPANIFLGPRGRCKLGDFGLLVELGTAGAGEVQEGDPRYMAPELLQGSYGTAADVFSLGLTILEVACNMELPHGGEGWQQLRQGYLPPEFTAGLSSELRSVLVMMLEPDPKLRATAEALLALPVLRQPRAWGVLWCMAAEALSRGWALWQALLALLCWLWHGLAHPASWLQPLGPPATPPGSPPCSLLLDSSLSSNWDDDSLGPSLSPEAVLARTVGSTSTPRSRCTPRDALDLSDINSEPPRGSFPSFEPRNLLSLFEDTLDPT

[13] = target: Fibroblast growth factor receptor 2 (Homo sapiens, UniProt P21802)
[14] = target: Receptor tyrosine-protein kinase erbB-2 (Homo sapiens, UniProt P04626)

Measured: Kd

Sequence of High affinity nerve growth factor receptor (P04629 whole entry): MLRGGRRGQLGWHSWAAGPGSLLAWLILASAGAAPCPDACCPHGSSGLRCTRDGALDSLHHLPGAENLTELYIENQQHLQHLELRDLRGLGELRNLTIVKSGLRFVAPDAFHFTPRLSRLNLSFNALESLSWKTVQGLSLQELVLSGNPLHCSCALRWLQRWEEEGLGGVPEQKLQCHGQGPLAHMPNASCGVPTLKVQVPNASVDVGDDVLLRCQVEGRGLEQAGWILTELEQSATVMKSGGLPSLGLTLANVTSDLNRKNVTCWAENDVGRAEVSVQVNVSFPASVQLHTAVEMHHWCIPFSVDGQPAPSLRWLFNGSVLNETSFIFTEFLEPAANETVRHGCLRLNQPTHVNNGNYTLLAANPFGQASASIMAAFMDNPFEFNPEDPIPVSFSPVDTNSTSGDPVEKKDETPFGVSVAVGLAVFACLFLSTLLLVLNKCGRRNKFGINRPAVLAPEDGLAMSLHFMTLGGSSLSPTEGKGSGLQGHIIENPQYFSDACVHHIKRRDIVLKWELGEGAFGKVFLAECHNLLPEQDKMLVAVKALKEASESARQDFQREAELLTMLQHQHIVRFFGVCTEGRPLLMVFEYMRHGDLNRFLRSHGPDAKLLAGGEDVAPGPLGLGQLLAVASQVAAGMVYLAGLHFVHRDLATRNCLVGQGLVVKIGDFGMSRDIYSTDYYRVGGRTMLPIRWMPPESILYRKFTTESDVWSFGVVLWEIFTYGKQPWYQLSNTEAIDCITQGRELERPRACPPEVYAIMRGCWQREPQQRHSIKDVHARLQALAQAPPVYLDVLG
Sequence of Serine/threonine-protein kinase PAK 4 (O96013 whole entry): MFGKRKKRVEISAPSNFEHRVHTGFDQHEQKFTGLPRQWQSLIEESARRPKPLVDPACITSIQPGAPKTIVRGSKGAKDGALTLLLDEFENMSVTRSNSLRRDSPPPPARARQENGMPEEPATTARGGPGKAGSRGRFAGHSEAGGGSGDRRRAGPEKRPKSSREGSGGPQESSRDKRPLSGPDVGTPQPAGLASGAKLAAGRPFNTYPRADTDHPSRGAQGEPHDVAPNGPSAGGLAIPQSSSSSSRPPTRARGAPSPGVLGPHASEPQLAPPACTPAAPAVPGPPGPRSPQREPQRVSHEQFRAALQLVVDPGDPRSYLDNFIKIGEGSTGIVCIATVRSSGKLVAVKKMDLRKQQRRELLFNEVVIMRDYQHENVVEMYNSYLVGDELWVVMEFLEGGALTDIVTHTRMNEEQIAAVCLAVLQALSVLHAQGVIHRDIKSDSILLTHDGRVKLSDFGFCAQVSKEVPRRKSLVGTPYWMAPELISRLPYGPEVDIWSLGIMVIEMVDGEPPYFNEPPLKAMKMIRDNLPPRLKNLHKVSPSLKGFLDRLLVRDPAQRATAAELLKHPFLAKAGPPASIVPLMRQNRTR
Sequence of Receptor tyrosine-protein kinase erbB-2 (P04626 whole entry): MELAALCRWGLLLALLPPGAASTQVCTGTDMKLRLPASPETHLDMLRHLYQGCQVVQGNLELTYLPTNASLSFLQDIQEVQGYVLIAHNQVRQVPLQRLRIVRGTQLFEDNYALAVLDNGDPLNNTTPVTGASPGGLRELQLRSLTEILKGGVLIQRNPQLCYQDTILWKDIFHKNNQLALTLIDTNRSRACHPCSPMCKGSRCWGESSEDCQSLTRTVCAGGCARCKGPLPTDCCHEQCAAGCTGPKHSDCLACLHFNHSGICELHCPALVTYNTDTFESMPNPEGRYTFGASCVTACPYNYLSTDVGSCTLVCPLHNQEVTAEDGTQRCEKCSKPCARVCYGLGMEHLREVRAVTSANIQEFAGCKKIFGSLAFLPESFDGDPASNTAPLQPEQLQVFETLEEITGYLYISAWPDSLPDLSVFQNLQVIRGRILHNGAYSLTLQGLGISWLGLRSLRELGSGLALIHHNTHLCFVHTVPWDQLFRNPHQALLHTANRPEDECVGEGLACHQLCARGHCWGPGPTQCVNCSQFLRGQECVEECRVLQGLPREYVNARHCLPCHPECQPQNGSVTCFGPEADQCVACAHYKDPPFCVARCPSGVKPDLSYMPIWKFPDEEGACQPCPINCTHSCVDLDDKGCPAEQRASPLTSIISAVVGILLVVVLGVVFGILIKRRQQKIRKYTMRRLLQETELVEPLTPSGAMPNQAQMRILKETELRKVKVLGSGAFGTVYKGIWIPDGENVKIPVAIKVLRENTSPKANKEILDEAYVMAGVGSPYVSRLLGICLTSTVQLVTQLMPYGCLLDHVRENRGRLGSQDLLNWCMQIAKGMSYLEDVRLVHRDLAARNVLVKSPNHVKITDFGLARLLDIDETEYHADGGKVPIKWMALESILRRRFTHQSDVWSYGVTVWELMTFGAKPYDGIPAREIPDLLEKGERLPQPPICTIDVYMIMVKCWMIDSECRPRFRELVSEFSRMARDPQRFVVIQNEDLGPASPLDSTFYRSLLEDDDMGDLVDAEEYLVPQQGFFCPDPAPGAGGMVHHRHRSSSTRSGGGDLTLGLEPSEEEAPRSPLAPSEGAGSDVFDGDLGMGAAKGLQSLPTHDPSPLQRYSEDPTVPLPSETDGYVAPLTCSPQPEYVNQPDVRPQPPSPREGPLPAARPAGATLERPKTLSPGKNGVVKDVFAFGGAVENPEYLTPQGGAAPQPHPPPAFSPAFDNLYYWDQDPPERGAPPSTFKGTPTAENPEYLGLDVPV
Sequence of Fibroblast growth factor receptor 2 (P21802 whole entry): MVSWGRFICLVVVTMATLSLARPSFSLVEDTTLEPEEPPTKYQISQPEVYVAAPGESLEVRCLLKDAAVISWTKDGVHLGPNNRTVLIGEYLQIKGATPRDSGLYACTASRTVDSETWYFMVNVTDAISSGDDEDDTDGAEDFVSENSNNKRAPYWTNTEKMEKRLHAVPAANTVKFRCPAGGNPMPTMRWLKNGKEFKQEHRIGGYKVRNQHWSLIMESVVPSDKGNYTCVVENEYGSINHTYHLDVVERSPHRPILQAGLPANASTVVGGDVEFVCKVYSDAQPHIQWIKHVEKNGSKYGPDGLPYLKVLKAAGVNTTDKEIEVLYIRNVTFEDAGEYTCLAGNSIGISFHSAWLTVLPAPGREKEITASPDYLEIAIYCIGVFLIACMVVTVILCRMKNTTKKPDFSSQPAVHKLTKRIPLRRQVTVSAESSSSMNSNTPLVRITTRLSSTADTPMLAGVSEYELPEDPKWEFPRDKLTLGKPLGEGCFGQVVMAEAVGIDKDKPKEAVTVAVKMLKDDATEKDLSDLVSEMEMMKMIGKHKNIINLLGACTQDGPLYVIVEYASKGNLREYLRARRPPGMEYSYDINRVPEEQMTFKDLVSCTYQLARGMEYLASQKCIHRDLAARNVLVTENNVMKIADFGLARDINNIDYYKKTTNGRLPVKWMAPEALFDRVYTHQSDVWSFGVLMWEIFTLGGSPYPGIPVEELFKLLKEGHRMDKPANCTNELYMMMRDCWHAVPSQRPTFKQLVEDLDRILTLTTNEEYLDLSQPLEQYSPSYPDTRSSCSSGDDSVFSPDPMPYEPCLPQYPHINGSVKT
Sequence of Mitogen-activated protein kinase kinase kinase kinase 5 (Q9Y4K4 whole entry): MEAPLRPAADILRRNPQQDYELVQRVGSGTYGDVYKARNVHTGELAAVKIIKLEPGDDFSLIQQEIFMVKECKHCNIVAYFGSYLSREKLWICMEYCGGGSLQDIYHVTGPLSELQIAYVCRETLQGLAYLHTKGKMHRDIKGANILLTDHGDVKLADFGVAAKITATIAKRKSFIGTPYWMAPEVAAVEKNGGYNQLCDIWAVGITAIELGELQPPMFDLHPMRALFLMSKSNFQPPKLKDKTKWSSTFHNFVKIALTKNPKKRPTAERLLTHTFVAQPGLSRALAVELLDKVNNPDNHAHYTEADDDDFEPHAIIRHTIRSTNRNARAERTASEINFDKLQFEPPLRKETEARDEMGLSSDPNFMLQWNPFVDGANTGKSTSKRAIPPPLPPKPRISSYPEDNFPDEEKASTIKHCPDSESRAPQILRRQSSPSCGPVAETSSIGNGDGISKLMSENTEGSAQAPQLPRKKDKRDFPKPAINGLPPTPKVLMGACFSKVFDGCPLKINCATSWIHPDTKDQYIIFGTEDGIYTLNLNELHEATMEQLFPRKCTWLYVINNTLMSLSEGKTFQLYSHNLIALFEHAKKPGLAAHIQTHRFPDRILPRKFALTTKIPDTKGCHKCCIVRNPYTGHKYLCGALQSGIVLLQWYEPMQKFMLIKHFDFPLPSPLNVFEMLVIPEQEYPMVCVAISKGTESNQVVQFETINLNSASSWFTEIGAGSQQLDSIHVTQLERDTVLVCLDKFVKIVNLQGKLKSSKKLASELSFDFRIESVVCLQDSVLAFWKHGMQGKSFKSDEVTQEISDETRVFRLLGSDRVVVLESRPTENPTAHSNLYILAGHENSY

C#Cc1cccc(Nc2ncnc3cc(OCCOC)c(OCCOC)cc23)c1 [ERLOTINIB]
not listed: [13] | [14]
Not Active: all other assays above

Cc1ccc(NC(=O)c2ccc(CN3CCN(C)CC3)cc2)cc1Nc1nccc(-c2cccnc2)n1 [IMATINIB]
not listed: [7] | [11]
Not Active: all other assays above

O=c1ncn2nc(Sc3ccc(F)cc3F)ccc2c1-c1c(Cl)cccc1Cl [NEFLAMAPIMOD]
not listed: [11]
Not Active: all other assays above

CCOc1cc2ncc(C#N)c(Nc3ccc(F)c(Cl)c3)c2cc1NC(=O)/C=C/CN(C)C [PELITINIB]
Not Active: [1] | [4] | [7] | [8] | [9] | [10] | [13] | [11]

Oc1ccc(-c2nc(-c3ccc(F)cc3)c(-c3ccncc3)[nH]2)cc1 [SB-202190]
Not Active: all assays above

C[S+]([O-])c1ccc(-c2nc(-c3ccc(F)cc3)c(-c3ccncc3)[nH]2)cc1 (stereo not drawn) [SB-203580]
Not Active: all assays above

Oc1c2ccccc2c2c3c(cccc13)N=N2 [SP-600125]
not listed: [7] | [10]
Not Active: all other assays above

COc1cc2c(N3CCN(C(=O)Nc4ccc(OC(C)C)cc4)CC3)ncnc2cc1OCCCN1CCCCC1 [TANDUTINIB]
not listed: [3] | [8] | [11]
Not Active: all other assays above
